Paper PMC12575728, “Galactose-modified small molecule modulator targets RORα to enhance circadian rhythm and alleviate periodontitis-associated alveolar bone loss” (Bone Research, 2025)
Converted amounts (≈) assume the structure as drawn.

Key:
Kinetic solubility test = type: physicochemical; conditions: water, 25 °C, kinetic from dmso stock
Text: Solubility(μmol/L)=Areafiltered×DFfiltered/Areastd×DFstd×[std]×DFstd

[1] = test system: Per2-dLuc and Bmal1-dLuc U2OS cells; experiment: Real-time bioluminescence monitoring of Per2-dLuc and Bmal1-dLuc U2OS cells; type: cell-based, human; conditions: U2OS reporter cells, 5 μmol/L, vs DMSO
Procedure: Two clonal circadian reporter cell lines, Bmal1-dLuc and Per2-dLuc, were established and used in this study.[36] These two cell lines display robust cellular rhythmicity with near anti-phasic oscillation of bioluminescence expression. The lentivirus preparation, transduction of U2OS cells and selection of the knockout candidates with puromycin (at […] concentration) were performed using a previously published protoco.[37] LumiCycle (Actimetrics, Inc., Evanston, IL) detect for U2OS cells stably expressing Bmal1-dLuc and Per2-dLuc cells were seeded on an opaque 24-well plate. When the cells are full, which were treated with dexamethasone (DEX) (100 nmol/L final) for 2 h for resetting, 2 h later, the media of cells were replaced with bioluminescence recording media having DMEM culture medium (Gibco 21063029, 500 mL), 70 mL 12% FBS. Luciferin (0.1 mmol/L final) was added fresh to the bioluminescence media. Molecules at determined concentrations were supplied to the recording media (final DMSO concentration is 0.1%).

RORα = biological target: T1, RORα (Homo sapiens, UniProt P35398); experiment: Luciferase reporter assay (G6Pase or FGF21 promoter) in HEK293T cells cotransfected with RORα; type: cell-based; conditions: Fig. S34
T1 construct: HEK293T cells co-transfected with a full-length RORα gene and a luciferase reporter gene; expressed in transfected cells; host or cells: HEK293T
T1 sequence (P35398 1-523): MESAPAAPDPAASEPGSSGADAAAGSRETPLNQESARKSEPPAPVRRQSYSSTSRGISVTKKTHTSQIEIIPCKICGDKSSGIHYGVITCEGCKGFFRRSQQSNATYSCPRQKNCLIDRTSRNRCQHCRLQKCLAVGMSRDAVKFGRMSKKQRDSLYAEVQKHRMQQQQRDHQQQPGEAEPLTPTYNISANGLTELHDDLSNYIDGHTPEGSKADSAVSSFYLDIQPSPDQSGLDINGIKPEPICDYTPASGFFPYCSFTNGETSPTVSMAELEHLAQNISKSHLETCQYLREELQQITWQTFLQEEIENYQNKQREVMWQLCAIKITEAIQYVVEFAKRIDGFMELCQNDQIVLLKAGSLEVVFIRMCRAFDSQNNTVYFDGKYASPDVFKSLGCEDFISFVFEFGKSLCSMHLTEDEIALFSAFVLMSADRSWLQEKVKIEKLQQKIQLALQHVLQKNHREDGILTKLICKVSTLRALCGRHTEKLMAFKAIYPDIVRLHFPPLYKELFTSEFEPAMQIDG
Procedure: HEK293T cells were transfected with Lipofectamine 8000 (ThermoFisher) strictly following the manufacturer’s instructions. Cotransfected HEK293T cells with RORα or RORγ plasmid and a reporter consisting of the G6Pase or FGF21 promoters upstream of a luciferase reporter gene. 500 ng plasmid DNA was transfected into each well of 24 well-plate 24 h after the transfection, DMSO or Gala-SR and SR1078 (5 µmol/L) was added and incubated for 24 h. The Lumicycle instrument detects luminescence and records the numerical value.

Compound	solubility kinetic at 2 h (Kinetic solubility test) [µM]	circadian rhythm amplitudes [1]	period or phase of the circadian rhythm [1]	RORα transcriptional activity (RORα)
O=C(Nc1ccc(C(OCO[C@@H]2O[C@H](CO)[C@@H](O[C@H]3O[C@H](CO)[C@@H](O)[C@H](O)[C@H]3O)[C@H](O)[C@H]2O)(C(F)(F)F)C(F)(F)F)cc1)c1ccc(C(F)(F)F)cc1 [Malt-SR]	286 (≈ 225 µg/mL)	–	–	–
O=C(Nc1ccc(C(OCO[C@H]2O[C@H](CO)[C@@H](O)[C@H](O)[C@@H]2O)(C(F)(F)F)C(F)(F)F)cc1)c1ccc(C(F)(F)F)cc1 [Mann-SR]	198 (≈ 124 µg/mL)	–	–	–
Cc1ccc(C(=O)Nc2ccc(C(O)(C(F)(F)F)C(F)(F)F)cc2)cc1 [compound 9, reference compound]	–	downregulate the amplitudes	without disrupting the fundamental period or phase	successful inhibition
